pIC50: −log10 of the molar value. Residues, ends and D or L forms follow the SMILES beside them.

One assay concerns the target T1, MMP-2 (Homo sapiens, UniProt P08253).
T1 sequence (P08253 110-660): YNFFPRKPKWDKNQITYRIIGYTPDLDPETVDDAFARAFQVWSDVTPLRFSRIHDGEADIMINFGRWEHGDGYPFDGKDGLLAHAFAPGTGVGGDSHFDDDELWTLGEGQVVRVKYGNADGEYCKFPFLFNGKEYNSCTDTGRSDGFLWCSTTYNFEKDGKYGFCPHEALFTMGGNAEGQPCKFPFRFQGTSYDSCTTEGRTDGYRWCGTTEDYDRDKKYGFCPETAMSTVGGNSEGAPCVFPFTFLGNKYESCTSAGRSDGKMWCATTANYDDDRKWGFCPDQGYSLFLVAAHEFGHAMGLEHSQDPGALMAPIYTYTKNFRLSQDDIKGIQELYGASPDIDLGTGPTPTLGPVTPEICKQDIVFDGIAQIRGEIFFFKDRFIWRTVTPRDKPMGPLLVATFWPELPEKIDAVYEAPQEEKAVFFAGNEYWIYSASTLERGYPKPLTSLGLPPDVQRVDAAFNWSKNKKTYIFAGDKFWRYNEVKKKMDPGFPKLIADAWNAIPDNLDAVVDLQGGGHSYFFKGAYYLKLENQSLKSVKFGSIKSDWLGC
As to the kind of experiment: Matrix metalloproteinase inhibitory test, DQ-gelatin substrate. The class given is biochemical. The settings on record: flourescein conjugated gelatin; read-out: IC50 for the inhibition of MMP-2. As for the experimental part: (§1) Matrix Metalloproteinase Inhibitory Test
(§2) The assay was performed in microtiter plates. In each single well 1 μl enzyme, the inhibitor at the desired concentration and finally 5 μl substrate were added to PBS buffer (pH 7.0-7.5), final volume: 200 μl. The reaction mixture was incubated at 37° C. for 2 hours. The increase in fluorescence was continuously recorded, exciting at 485 nm and reading the emission at 530 nm, with a gain of 40.
(§3) Inhibitors:— o-phenantroline: 9.9 mg in 25 μl DMF (dimethylformamide→add 1 μl (final concentration: 10 mM) • synthetic inhibitors at different concentrations
(§4) Substrate: DQ-gelatin: 1 mg/ml in PBS→add 5 μl to the reaction (reaction volume: 200 μl) (final concentration: […])
(§5) Enzymes: • MMP-7: stock solution: 1 U/μl • MMP-2: stock solution: 0.05 μg/μl • MMP-9: stock solution: 0.05 μg/μl Results & Discussion Generation of the Peptide Library with Lb. helveticus CNCM I-2864 . . .

For another assay, the target named is T2, MMP-7 (Homo sapiens, UniProt P09237).
T2 sequence (P09237 95-267): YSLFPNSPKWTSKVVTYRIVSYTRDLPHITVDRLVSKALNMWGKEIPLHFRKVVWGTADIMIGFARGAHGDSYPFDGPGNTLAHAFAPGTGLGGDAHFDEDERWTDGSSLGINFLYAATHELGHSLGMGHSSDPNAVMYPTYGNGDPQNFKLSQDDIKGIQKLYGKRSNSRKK
The assay is described as above. The class given is biochemical. The settings on record: flourescein conjugated gelatin; read-out: IC50 for the inhibition of MMP-7. As for the experimental part: as §1, §2, §3, §4, §5

The target in another assay is MMP-9 (Homo sapiens, UniProt P14780). The description is as above. The class given is biochemical. The settings on record: flourescein conjugated gelatin; read-out: IC50 for the inhibition of MMP-9. As for the experimental part: as §1, §2, §3, §4, §5
MMP-9, sequence (P14780 94-707, species assumed): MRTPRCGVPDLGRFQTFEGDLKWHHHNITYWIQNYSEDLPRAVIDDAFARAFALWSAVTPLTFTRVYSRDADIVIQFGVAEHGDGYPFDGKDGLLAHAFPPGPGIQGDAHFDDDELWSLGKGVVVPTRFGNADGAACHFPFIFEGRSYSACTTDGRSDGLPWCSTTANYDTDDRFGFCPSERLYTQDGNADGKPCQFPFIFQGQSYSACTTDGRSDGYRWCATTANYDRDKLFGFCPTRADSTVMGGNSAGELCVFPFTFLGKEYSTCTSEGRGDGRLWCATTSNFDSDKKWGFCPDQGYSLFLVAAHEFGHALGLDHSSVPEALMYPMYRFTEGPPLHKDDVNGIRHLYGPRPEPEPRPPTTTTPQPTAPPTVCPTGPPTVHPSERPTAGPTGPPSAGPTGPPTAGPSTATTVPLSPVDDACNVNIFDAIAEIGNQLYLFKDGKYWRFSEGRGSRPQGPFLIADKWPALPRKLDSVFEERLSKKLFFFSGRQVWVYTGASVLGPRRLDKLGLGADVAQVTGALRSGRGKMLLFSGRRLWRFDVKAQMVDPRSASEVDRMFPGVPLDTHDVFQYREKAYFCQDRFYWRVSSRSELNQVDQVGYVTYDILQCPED
For a further assay, the target named is T3, ACE (Homo sapiens, UniProt P12821).
T3 construct: purchased
T3 sequence (P12821 30-1306, species assumed): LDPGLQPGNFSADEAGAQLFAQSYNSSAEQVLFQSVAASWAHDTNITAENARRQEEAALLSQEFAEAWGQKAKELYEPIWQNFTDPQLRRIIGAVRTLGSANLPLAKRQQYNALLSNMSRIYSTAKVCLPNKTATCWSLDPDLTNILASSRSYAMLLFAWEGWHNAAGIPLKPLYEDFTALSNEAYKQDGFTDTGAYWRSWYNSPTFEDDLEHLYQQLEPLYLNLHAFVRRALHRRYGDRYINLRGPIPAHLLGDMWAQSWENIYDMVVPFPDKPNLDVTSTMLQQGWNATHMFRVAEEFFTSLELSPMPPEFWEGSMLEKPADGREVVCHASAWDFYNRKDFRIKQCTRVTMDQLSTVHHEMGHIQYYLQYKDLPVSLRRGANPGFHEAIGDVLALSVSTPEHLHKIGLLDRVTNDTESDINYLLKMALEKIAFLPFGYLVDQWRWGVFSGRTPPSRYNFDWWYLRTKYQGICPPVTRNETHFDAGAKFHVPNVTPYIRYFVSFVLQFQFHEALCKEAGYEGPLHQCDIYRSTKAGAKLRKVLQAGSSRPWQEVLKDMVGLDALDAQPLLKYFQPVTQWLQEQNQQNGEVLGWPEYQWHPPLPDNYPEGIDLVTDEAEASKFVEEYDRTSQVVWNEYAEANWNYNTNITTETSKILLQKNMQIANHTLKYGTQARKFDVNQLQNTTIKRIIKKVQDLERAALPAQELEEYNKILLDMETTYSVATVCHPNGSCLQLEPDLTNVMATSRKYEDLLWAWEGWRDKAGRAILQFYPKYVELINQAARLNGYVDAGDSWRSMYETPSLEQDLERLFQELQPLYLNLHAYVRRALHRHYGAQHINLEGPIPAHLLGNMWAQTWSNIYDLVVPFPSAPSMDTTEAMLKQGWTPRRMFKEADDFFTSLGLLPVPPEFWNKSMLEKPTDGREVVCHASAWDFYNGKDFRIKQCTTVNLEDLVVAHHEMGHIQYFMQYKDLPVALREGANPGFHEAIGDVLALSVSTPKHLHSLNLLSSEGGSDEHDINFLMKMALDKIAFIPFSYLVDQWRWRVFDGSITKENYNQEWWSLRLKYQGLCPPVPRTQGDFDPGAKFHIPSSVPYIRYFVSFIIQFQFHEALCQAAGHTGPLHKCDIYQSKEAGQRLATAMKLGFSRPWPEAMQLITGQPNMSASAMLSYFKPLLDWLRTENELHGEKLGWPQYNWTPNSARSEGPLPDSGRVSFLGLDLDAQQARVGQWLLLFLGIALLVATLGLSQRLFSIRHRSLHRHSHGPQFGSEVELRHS
As to the kind of experiment: Angiotensin-converting-enzyme inhibitory test, FAPGG substrate. The class given is biochemical. The settings on record: substrate N-[3-2(furyl)acryloyl]L-phenylalanylglycylglycine; read-out: IC50 for the inhibition of ACE. As to the method: Angiotensin-Converting-Enzyme Inhibitory Test
This procedure is a rapid spectrophotometric method utilizing the synthetic tripeptide substrate N-[3-(2-furyl)acryloil]-L-phenylalanylglycylglycine (FAPGG). Km-value: 0.3 mM.
FAPGG was hydrolysed to furylacryloylphenylalanine (FAP) and glycylgylcine.
The ACE reagent and the ACE Calibrator were reconstituted according to the manufacturer's recommendations.
The assay was performed in quartz cuvets. 0.05 ml ACE Reagent Solution, 0.05 ml casein hydrolysate and 0.05 ml ACE calibrator were mixed and incubated at 37° C. for 10 minutes.
The absorbance at 340 nm was measured as a function of time.
The ACE activity in the sample was determined by comparing the sample reaction rate to that obtained with the ACE calibrator. The results are expressed as percentage with respect to the control.

In another assay the test system is HT-29 cells. As to the kind of experiment: Proliferation of HT-29 cells with synthetic peptides (percentage of counts). The class given is cell-based, human. The settings on record: for antiproliferative activity of synthetic peptides (in words): HT-29 cells. As for the experimental part: Undifferentiated cells (passages 45-78) were maintained in glucose-containing DMEM supplemented with 10% FCS at 37° C. in a 5% CO2/air incubator. Culture medium was changed every two days until the cell monolayers reached 50% confluence. For stimulation assays, HT-29 cells were plated at 1.2*10^4 cells/well in 96-well flat-bottom plates. After incubation for 4 days, the amount of cells present in the wells before incubation with the samples was assessed adding neutral red solution in 4 wells and incubating the plate for 45 min. The HT-29 cells were then washed twice with serum-free media (inclusive the wells with neutral red solution). The wells colored with neutral red remained from now on free of any media.
Synthetic peptides that were tested on HT-29 cell line confirmed their antiproliferative potential.
The same experiment was performed with a shorter version of the former mentioned peptide: ENLLRFFVAPFPEVFG (SEQ ID NO:22) (αS1 33-48).

The next assay deals with MMPs. The settings on record: background statement; cited from earlier work.
A further assay deals with MMP. As to the kind of experiment: Matrix metalloproteinase inhibitory test, positive control. The settings on record: 10 mM concentration; data not shown. The class given is biochemical. As to the method:
as §1, §2, §3

For `CC(C)C[C@H](NC(=O)[C@H](CC(C)C)NC(=O)[C@@H]1CCCN1C(=O)[C@H](CC(C)C)NC(=O)[C@@H]1CCCN1C(=O)[C@H](CC(C)C)NC(=O)[C@H](Cc1c[nH]cn1)NC(=O)[C@H](CC(C)C)NC(=O)[C@H](CC(N)=O)NC(=O)[C@@H](N)CCC(=O)O)C(=O)O` [ENLHLPLPLL] (H-ENLHLPLPLL-OH; N-terminus and C-terminus assumed), the pIC50 (as a rule, −log10 of the IC50, conventionally taken in molar units) at MMP-2 is 3.70; on MMP-7, 3.56; at MMP-9, 3.52; at ACE, 3.60.

As for `CC(C)[C@H](NC(=O)[C@H](CCC(=O)O)NC(=O)[C@@H]1CCCN1C(=O)[C@H](Cc1ccccc1)NC(=O)[C@@H]1CCCN1C(=O)[C@H](C)NC(=O)[C@@H](NC(=O)[C@@H](N)Cc1ccccc1)C(C)C)C(=O)N[C@@H](Cc1ccccc1)C(=O)NCC(=O)O` [FVAPFPEVFG] (H-FVAPFPEVFG-OH; N-terminus and C-terminus assumed), the negative logarithm of the IC50 (pIC50) on MMP-2 is 3.30; at MMP-7, 3.52; at MMP-9 it was 3.40; on ACE, 3.19.

As for `CC(C)C[C@H](NC(=O)[C@H](CC(C)C)NC(=O)[C@H](CC(N)=O)NC(=O)[C@H](CCC(=O)O)NC(=O)[C@@H](N)CC(N)=O)C(=O)N[C@@H](CCCNC(=N)N)C(=O)N[C@@H](Cc1ccccc1)C(=O)N[C@@H](Cc1ccccc1)C(=O)N[C@H](C(=O)N[C@@H](C)C(=O)N1CCC[C@H]1C(=O)N[C@@H](Cc1ccccc1)C(=O)N1CCC[C@H]1C(=O)N[C@@H](CCC(=O)O)C(=O)N[C@H](C(=O)N[C@@H](Cc1ccccc1)C(=O)NCC(=O)O)C(C)C)C(C)C` [NENLLRFFVAPFPEVFG] (H-NENLLRFFVAPFPEVFG-OH; N-terminus and C-terminus assumed), the pIC50 on MMP-2 is 3.56; on MMP-7 it was 3.07; at MMP-9, 4.30; at ACE it was 4.26.

On to `CC(C)C[C@H](NC(=O)[C@H](CC(C)C)NC(=O)[C@H](CC(N)=O)NC(=O)[C@H](CCC(=O)O)NC(=O)[C@H](CC(N)=O)NC(=O)[C@@H](N)CC(C)C)C(=O)N[C@@H](CCCNC(=N)N)C(=O)N[C@@H](Cc1ccccc1)C(=O)N[C@@H](Cc1ccccc1)C(=O)N[C@H](C(=O)N[C@@H](C)C(=O)N1CCC[C@H]1C(=O)N[C@@H](Cc1ccccc1)C(=O)N1CCC[C@H]1C(=O)N[C@@H](CCC(=O)O)C(=O)N[C@H](C(=O)N[C@@H](Cc1ccccc1)C(=O)NCC(=O)O)C(C)C)C(C)C` [LNENLLRFFVAPFPEVFG] (H-LNENLLRFFVAPFPEVFG-OH; N-terminus and C-terminus assumed), for which the “antiproliferative activity of synthetic peptides (in words)” value with HT-29 cells was “strongly inhibited proliferation”. Also, the “% prolif (percentage of counts with respect to the control)” value with HT-29 cells (peptide concentration 2 μM) was determined as 56%; in the assay with HT-29 cells (peptide concentration 4 μM), 44%; in the assay on HT-29 cells (peptide concentration 8 μM) it was 160%; with HT-29 cells (peptide concentration 17 μM), 114%; in the assay with HT-29 cells (peptide concentration 33 μM), 131%; with HT-29 cells (peptide concentration 66 μM), 119%. Besides, the “% prolif (percentage of counts with respect to the control)” value with HT-29 cells (peptide concentration 133 μM) is given as 135%. In addition, the pIC50 on MMP-2 is 3.60; at MMP-7, 3.52; on MMP-9, 3.82; on ACE, 3.55.

Consider `CC(C)C[C@H](NC(=O)[C@H](CC(C)C)NC(=O)[C@@H]1CCCN1C(=O)[C@H](CC(C)C)NC(=O)[C@@H]1CCCN1C(=O)[C@H](CC(C)C)NC(=O)[C@H](Cc1c[nH]cn1)NC(=O)[C@H](CC(C)C)NC(=O)[C@@H](N)CC(N)=O)C(=O)O` [NLHLPLPLL] (H-NLHLPLPLL-OH; N-terminus and C-terminus assumed), for which the pIC50 on MMP-2 was 3.35; on MMP-7, 2.92; on MMP-9 it was 3.22; on ACE it was 4.82.

For `CNC(=O)[C@@H](NC(=O)[C@H](CC(C)C)[C@H](O)C(=O)NO)C(C)(C)C` [marimastat], in the assay with MMPs, the IC50 entry is reported as “micromolar range”.

With `CC(C)C[C@H](NC(=O)[C@H](CC(C)C)NC(=O)[C@@H]1CCCN1C(=O)[C@H](CC(C)C)NC(=O)[C@@H]1CCCN1C(=O)[C@H](CC(C)C)NC(=O)[C@H](Cc1c[nH]cn1)NC(=O)[C@H](CC(C)C)NC(=O)[C@H](CC(N)=O)NC(=O)[C@H](CCC(=O)O)NC(=O)[C@@H](N)C(C)C)C(=O)O` [VENLHLPLPLL] (H-VENLHLPLPLL-OH; N-terminus and C-terminus assumed), the negative-log IC50 (pIC50) on MMP-2 is 3.82; on MMP-7, 3.60; on MMP-9 it was 3.52; at ACE it was 3.76.

As to `CC(C)C[C@H](NC(=O)[C@H](CC(C)C)NC(=O)[C@H](CC(N)=O)NC(=O)[C@@H](N)CCC(=O)O)C(=O)N[C@@H](CCCNC(=N)N)C(=O)N[C@@H](Cc1ccccc1)C(=O)N[C@@H](Cc1ccccc1)C(=O)N[C@H](C(=O)N[C@@H](C)C(=O)N1CCC[C@H]1C(=O)N[C@@H](Cc1ccccc1)C(=O)N1CCC[C@H]1C(=O)N[C@@H](CCC(=O)O)C(=O)N[C@H](C(=O)N[C@@H](Cc1ccccc1)C(=O)NCC(=O)O)C(C)C)C(C)C` [ENLLRFFVAPFPEVFG] (H-ENLLRFFVAPFPEVFG-OH; N-terminus and C-terminus assumed), the “antiproliferative activity of synthetic peptides (in words)” value in the assay with HT-29 cells was “antiproliferative pattern similar to the one observed for LNENLLRFFVAPFPEVFG”. Further, the pIC50 is 3.37 on MMP-2, 3.00 at MMP-7, 3.82 on MMP-9 and 3.60 at ACE.

For the compound `c1cnc2c(c1)ccc1cccnc12` [o-phenantroline], the “MMP inhibition (in words)” value in the assay on MMP is “complete MMP inhibition”.

Source of the values: patent US7597904B2, “Metalloproteinase inhibitory agent” (Nestec S.A., priority 2004, dated 2009).
